Measured values published in PubChem BioAssay (NCI).
“And” between values parts separate entries of the source, which are not always exact repeats. Equal values may be shown once.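 All cell lines were grown in 96-well plates and treated with compound for 48 hours. GI50 is the concentration that inhibits growth by half. TGI: total growth inhibition.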

Assays:
Assay in all cases: NCI anticancer screen, dose series, 48 h
[1] = tested on: HOP-92 NSCLC
[2] = tested on: NCI/ADR-RES ovarian
[3] = tested on: HT29 colon
[4] = tested on: HOP-62 NSCLC
[5] = tested on: OVCAR-8 ovarian
[6] = tested on: MOLT-4 leukemia
[7] = tested on: EKVX NSCLC
[8] = tested on: HL-60(TB) leukemia
[9] = tested on: SNB-19 CNS
[10] = tested on: SNB-75 CNS

Row | SMILES | GI50 [1] | TGI [1] | GI50 [2] | TGI [2] [µM] | GI50 [3] | TGI [3] [µM] | GI50 [4] | TGI [4] | GI50 [5] | TGI [5] [µM] | GI50 [6] | TGI [6] [µM] | GI50 [7] [µM] | TGI [7] [µM] | GI50 [8] | TGI [8] [µM] | GI50 [9] | TGI [9] [µM] | GI50 [10] | TGI [10]
1 | COc1cc(-c2nn(C)nc2-c2cc3ccccc3s2)cc(OC)c1OC | 0.0806 µM | 78.7 µM | 0.103 µM | > 100 | 0.0558 µM | 0.393 | 0.553 µM | > 100 µM | 0.352 µM | > 100 | 0.333 µM | > 100 | 0.466 | > 100 | 0.0488 µM | 1.07 | 0.254 µM | > 100 |  | 
2 | Clc1ccc(N/N=C/c2ccccn2)nc1 | 0.608 µM | > 100 µM | 0.383 µM | > 100 | 0.574 µM | > 100 | 0.421 µM | > 80.3 µM | 0.425 µM | > 100 | 0.339 µM | > 50.7 | 0.352 | > 100 | 0.318 µM | 1.31 | 0.674 µM | > 100 | 1.74 µM | > 45.8 µM
3 | COc1cc(C2=Nc3c/c(=C\c4c(O)[nH]c5ccc(Cl)cc45)ccc3=N2)cc(OC)c1OC | 0.444 µM | 6.35 µM | 5.96 µM | 54.7 | 2.11 µM | 4.5 | 1.95 µM | 4.09 µM | 1.95 µM | 5.24 | 2.43 µM | 12.9 |  |  | 3.13 µM | 14.6 | 4.55 µM | 13.5 | 1.78 µM | 10.6 µM
4 | CCNC(=O)Nc1ccc(-c2nc3c(c(N4CCOC[C@@H]4C)n2)CCN(C2COC2)C3)cc1 | 0.043 µM and 0.0307 µM | 0.681 µM and 0.493 µM | 2.87 µM and 1.78 µM | > 100 | 0.587 µM and 0.409 µM | > 100 | 0.443 µM and 0.391 µM | 22 µM and > 7.45 µM | 0.46 µM and 0.534 µM | > 100 | 0.521 µM and 0.911 µM | > 100 | 0.323 | > 9.65 | 7.44 µM and 4.61 µM | > 100 | 0.303 µM and 0.45 µM | > 21.6 | 0.104 µM and 0.0737 µM | 1.13 µM and 1.1 µM
5 | Nc1cccc(-c2nc3sccn3c2-c2ccnc(NCCCNS(=O)(=O)c3ccc(C(F)(F)F)cc3)n2)c1 | 11.4 µM | 83.5 µM | 3.36 µM | 56.9 | 2.85 µM | 13.7 | 5.16 µM | 24.3 µM | 3.49 µM | 44.9 | 2.8 µM | 10.4 | 6.09 | 86.1 | 3.28 µM | 11.8 | 8.33 µM | > 100 | 1.83 µM | 23.1 µM
6 | CN(C)c1cc2c(Nc3ccc4nc(Cc5ccccc5)[nH]c4c3)ncnc2cn1 | > 25 µM | > 25 µM | > 25 µM | > 25 | 11.9 µM | > 23 | > 15.6 µM | > 25 µM | > 17.4 µM | > 25 | > 25 µM | > 25 | 8.68 | > 25 | > 25 µM | > 25 | > 25 µM | > 25 | > 13.9 µM | > 25 µM
